Results from paper PMC12615753, “Glutathione as a taste modulator: molecular mechanisms of interaction with umami and sweet taste receptors” (Food Chemistry: Molecular Sciences, 2025).

Molecular target: T1, hTAS1R1 Y220A/rTAS1R3 (UniProt Q7RTX1+Q923K1, Y220A)
T1 construct: UniProtKB number Q7RTX1–1); The cDNA coding region of rTAS1R3 was synthesized with optimized-codon usage for human expression; expressed in transfected cells; host or cells: HEK293T/17
T1 sequence (Q7RTX1 21-841 Y220A): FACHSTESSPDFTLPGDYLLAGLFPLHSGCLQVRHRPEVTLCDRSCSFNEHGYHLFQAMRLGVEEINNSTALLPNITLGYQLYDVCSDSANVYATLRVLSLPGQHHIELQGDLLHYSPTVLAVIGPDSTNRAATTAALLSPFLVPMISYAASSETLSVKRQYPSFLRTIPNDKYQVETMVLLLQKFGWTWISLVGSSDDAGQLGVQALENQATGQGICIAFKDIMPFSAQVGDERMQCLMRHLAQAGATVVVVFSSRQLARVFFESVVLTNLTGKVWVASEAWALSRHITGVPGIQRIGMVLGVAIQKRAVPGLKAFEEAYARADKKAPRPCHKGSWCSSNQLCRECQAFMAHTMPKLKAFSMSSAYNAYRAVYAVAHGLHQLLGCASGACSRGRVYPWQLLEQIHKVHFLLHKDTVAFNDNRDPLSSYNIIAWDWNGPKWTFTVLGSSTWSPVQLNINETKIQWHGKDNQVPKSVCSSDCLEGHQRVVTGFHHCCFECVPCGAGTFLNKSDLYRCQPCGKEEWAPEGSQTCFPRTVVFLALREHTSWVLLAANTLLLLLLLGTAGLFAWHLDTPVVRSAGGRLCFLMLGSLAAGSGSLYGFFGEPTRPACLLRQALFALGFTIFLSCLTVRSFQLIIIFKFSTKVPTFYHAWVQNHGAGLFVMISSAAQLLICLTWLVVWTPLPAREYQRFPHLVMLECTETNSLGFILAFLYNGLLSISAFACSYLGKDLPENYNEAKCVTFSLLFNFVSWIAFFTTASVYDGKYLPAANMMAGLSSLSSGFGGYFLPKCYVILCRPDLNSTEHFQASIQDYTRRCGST
T1 sequence (Q923K1 21-858): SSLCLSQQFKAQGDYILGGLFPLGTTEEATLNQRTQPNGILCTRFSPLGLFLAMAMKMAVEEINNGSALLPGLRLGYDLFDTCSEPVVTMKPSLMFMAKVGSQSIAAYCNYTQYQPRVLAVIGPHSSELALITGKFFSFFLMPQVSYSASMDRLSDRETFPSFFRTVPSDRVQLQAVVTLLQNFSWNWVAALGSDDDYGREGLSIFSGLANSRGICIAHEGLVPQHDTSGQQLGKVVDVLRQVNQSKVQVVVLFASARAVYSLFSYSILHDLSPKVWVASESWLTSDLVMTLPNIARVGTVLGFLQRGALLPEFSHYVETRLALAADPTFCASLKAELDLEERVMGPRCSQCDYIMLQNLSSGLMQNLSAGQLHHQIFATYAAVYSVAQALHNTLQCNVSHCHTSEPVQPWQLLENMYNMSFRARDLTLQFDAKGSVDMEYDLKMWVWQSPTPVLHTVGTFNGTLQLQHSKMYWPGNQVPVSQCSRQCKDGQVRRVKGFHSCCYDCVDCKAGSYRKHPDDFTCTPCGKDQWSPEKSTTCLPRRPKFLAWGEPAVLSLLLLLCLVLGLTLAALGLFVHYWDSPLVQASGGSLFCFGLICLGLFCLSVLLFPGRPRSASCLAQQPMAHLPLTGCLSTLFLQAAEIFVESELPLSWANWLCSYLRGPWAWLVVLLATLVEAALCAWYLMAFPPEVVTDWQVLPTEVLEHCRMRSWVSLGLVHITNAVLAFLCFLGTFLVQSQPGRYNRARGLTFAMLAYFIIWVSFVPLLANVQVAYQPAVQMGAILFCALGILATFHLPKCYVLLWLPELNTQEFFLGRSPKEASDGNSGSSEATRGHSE
Assay: Calcium assay, hTAS1R1 mutant co-expressed with rTAS1R3
Format: cell-based, human, rat
Conditions: for response to the agonist alone, vs WT: Y220A
Excerpt: Chimeric Gα proteins, such as Gα16Gust44, Gα16Gi3 or Gα15i2, are widely used in the functional expression of TAS1R receptors ([Backes et al., 2015]; [Suess et al., 2015]; [Toda et al., 2021], [Toda et al., 2013], [Toda et al., 2018]; [Zhang et al., 2008]). Chimeric Gα15i2 (([Toda et al., 2013]), Supplementary data) was generated by replacing the last five residues of the C-terminal tail of rat Gα15i2 (EINLL) (UniProt number G3V6N8; https://www.uniprot.org/uniprot/) with the counterpart sequence from human GNAI2 (DCGLF) (UniProt number P04899-1) and cloning into the pcDNA3.1/Hygro vector (Invitrogen, Thermo Fisher Scientific, Illkirch, France) between the HindIII and NotI restriction sites, resulting in the plasmid pcDNA3.1-Gα15i2. Chimeric Gα16Gust44 construct have already been reported ([Raliou et al., 2011]). Briefly, Gα16Gust44 was generated by replacing the C-terminal of Gα16 with the C-terminal 44 residues of gustducin. As previously described, hTAS1R1 was amplified from human fungiform papillae cDNA and cloned and inserted into pcDNA3 (Invitrogen), generating pcDNA3-TAS1R1-WT (wild-type) ([Raliou et al., 2011]). […] The cDNA coding region of rTAS1R3 was synthesized with optimized-codon usage for human expression (Genewiz) and was cloned and inserted into the mammalian pcDNA4/myc-HisA (Invitrogen) expression vector between the EcoRI and NotI restriction sites, resulting in the plasmid pcDNA4-rTAS1R3. […] The sequence integrity of all the plasmid constructs was verified via automated DNA sequencing (Genewiz).
The hTAS1R1 mutants were co-expressed with the rTAS1R3 subunit in HEK293 cells. […] As a control, the functionality of the mutated receptors was checked after stimulation with S807 (Fig. S8), which interacts with TAS1R1-TMD ([Zhang et al., 2008]).

Row | SMILES | response to the agonist alone, vs WT | EC50 [mM]
1 | CCCC(CCC)NC(=O)c1ccc2c(c1)OCO2 [S807, N-(heptan-4-yl)benzo[d][1,3]dioxole-5-carboxamide, reference compound] | strongly affected | 
2 | N[C@@H](CCC(=O)O)C(=O)O [L-Glu, L-glutamic acid, reference compound] | completely suppressed | 
3 | N[C@@H](CCC(=O)N[C@@H](CS)C(=O)NCC(=O)O)C(=O)O [GSH, γ-L-glutamyl-L-cysteinyl-glycine] | fully abolished | > 30
